# Measurements as given in US20250367154A1, “FORMULATIONS FOR PROMOTING HYDRATION AND METHODS OF USE THEREOF” (UNIVERSITY OF FLORIDA RESEARCH FOUNDATION, INCORPORATED, priority 2020, published 2025).
# “Also recorded” adds a separate entry of the source.
# System: Small intestinal mucosal tissues (ileum and jejunum)
# Experiment: Ussing chamber sodium flux (net Na absorption, 22Na)
# Design: species or system Swiss mice
# Conditions: single free amino acid in solution, FIG. 4
# Protocol: Sodium (Na) Absorption Studies: measure net fluid and electrolyte absorption, wherein absorptive processes occur predominantly in the tip of the villi and secretory processes occur in the crypt. Na absorption studies were performed on certain of the amino acids present in 6AA-Hyd. […] Small intestinal mucosal tissues (ileum and jejunum) from 8-week old male Swiss mice were mounted in Ussing chambers containing isotonic Ringer solution, that was bubbled with 95% O2 and 5% CO2 and maintained at 37° C. throughout the experiment. After the tissues were allowed to stabilize, the conductance (G; expressed as mS/cm2) was recorded, and intestinal tissues were paired based on similar conductance. Sodium radioisotope (22Na) was added to either the basolateral or apical side of each tissue pair (Hot). Ringer samples were taken every 15 minutes from the contralateral sides (Cold). Sample 22Na activity was analyzed using a gamma counter, and unidirectional net sodium flux (Jnet; μeq·cm2·h−1) was calculated. [formula] [CPM=count per minute, CPM1=previous sample, CPM2=following sample; Blank=no 22Na added; 9/10=dilution factor for each sample (0.5 mL to 5 mL); 5=chamber volume (5 mL); 4=time factor (15 min to 60 min); 140=sodium concentration; Hot CPM=“Hot” sample activity; Cold CPM=“Cold” sample activity; 10=volume factor for Hot sample (0.1 mL to 1 mL); 0.3=intestinal surface area (cm2)]
row,Compound,net sodium (Na) absorption relative to control solution
1,N[C@@H](CO)C(=O)O [serine],increase net Na absorption relative to a control; also recorded: significantly higher than that of control solution
2,CC(C)[C@H](N)C(=O)O [valine],increase net Na absorption relative to a control; also recorded: significantly higher than that of control solution
3,N[C@@H](CC(=O)O)C(=O)O [aspartic acid],increase net Na absorption relative to a control; also recorded: significantly higher than that of control solution
